Measurements: ChEMBL document CHEMBL5634141 (Eur J Med Chem, 2023)

Legend:
NCI-H23 [1] = experiment: Antiproliferative activity against human NCI-H23 cells expressing KRAS G12C mutant assessed as relative cell viability at 100 nM incubated for 72 hrs by CCK-8 assay; format: functional; details: read-out: Activity
MIA PaCa-2 [2] = experiment: Antiproliferative activity against human MIA PaCa-2 cells expressing KRAS G12C mutant assessed as relative cell viability at 100 nM incubated for 72 hrs by CCK-8 assay; format: functional; details: read-out: Activity
Calu-1 [3] = experiment: Antiproliferative activity against human Calu-1 cells expressing KRAS G12C mutant assessed as relative cell viability at 100 nM incubated for 72 hrs by CCK-8 assay; format: functional; details: read-out: Activity
SW837 [4] = experiment: Antiproliferative activity against human SW837 cells expressing KRAS G12C mutant assessed as relative cell viability at 100 nM incubated for 72 hrs by CCK-8 assay; format: functional; details: read-out: Activity
NCI-H358 [5] = experiment: Antiproliferative activity against human NCI-H358 cells expressing KRAS G12C mutant assessed as relative cell viability at 100 nM incubated for 72 hrs by CCK-8 assay; format: functional; details: read-out: Activity
[6] = Cytotoxicity against HEK293T cells assessed as inhibition of cell growth incubated for 72 hrs by CCK-8 assay; format: toxicity, cell-based, HEK-293T; details: human
MIA PaCa-2 [7] = experiment: Antiproliferative activity against human MIA PaCa-2 cells expressing KRAS G12C mutant assessed as inhibition of cell growth incubated for 72 hrs by CCK-8 assay; format: functional, cell-based; details: MIA PaCa-2, 72 h
HepG2 = experiment: Antiproliferative activity against human HepG2 cells expressing KRAS assessed as inhibition of cell growth incubated for 72 hrs by CCK-8 assay; format: functional, cell-based; details: HepG2, 72 h
NCI-H358 [8] = experiment: Antiproliferative activity against human NCI-H358 cells expressing KRAS G12C mutant assessed as inhibition of cell growth incubated for 72 hrs by CCK-8 assay; format: functional, cell-based; details: NCI-H358, 72 h
ASPC1 = experiment: Antiproliferative activity against human ASPC1 cells expressing KRAS G12D mutant assessed as inhibition of cell growth incubated for 72 hrs by CCK-8 assay; format: functional, cell-based; details: ASPC1, 72 h
NCI-H358 [9] = experiment: Antiproliferative activity against human NCI-H358 cells expressing KRAS G12C mutant assessed as relative cell viability at 200 nM incubated for 72 hrs by CCK-8 assay; format: functional; details: read-out: Activity
MIA PaCa-2 [10] = experiment: Antiproliferative activity against human MIA PaCa-2 cells expressing KRAS G12C mutant assessed as relative cell viability at 200 nM incubated for 72 hrs by CCK-8 assay; format: functional; details: read-out: Activity
NCI-H23 [11] = experiment: Antiproliferative activity against human NCI-H23 cells expressing KRAS G12C mutant assessed as relative cell viability at 200 nM incubated for 72 hrs by CCK-8 assay; format: functional; details: read-out: Activity
SW837 [12] = experiment: Antiproliferative activity against human SW837 cells expressing KRAS G12C mutant assessed as relative cell viability at 200 nM incubated for 72 hrs by CCK-8 assay; format: functional; details: read-out: Activity
Calu-1 [13] = experiment: Antiproliferative activity against human Calu-1 cells expressing KRAS G12C mutant assessed as relative cell viability at 200 nM incubated for 72 hrs by CCK-8 assay; format: functional; details: read-out: Activity
NCI-H23 [14] = experiment: Antiproliferative activity against human NCI-H23 cells expressing KRAS G12C mutant assessed as relative cell viability at 50 nM incubated for 72 hrs by CCK-8 assay; format: functional; details: read-out: Activity
Calu-1 [15] = experiment: Antiproliferative activity against human Calu-1 cells expressing KRAS G12C mutant assessed as relative cell viability at 50 nM incubated for 72 hrs by CCK-8 assay; format: functional; details: read-out: Activity
MIA PaCa-2 [16] = experiment: Antiproliferative activity against human MIA PaCa-2 cells expressing KRAS G12C mutant assessed as relative cell viability at 50 nM incubated for 72 hrs by CCK-8 assay; format: functional; details: read-out: Activity
SW837 [17] = experiment: Antiproliferative activity against human SW837 cells expressing KRAS G12C mutant assessed as relative cell viability at 50 nM incubated for 72 hrs by CCK-8 assay; format: functional; details: read-out: Activity
NCI-H358 [18] = experiment: Antiproliferative activity against human NCI-H358 cells expressing KRAS G12C mutant assessed as relative cell viability at 50 nM incubated for 72 hrs by CCK-8 assay; format: functional; details: read-out: Activity

Structure (SMILES) | IC50 (MIA PaCa-2 [7]) | IC50 (HepG2) | IC50 (NCI-H358 [8]) | IC50 (ASPC1) | IC50 at 72 h [6] | further results
NC1(c2ccc(-c3nc4ccn5c(=O)[nH]nc5c4cc3-c3ccccc3)cc2)CCC1 [MK-2206] |  |  |  |  |  | viability at 0.1 µM (NCI-H23 [1]): 0.85%; viability at 0.1 µM (MIA PaCa-2 [2]): 0.92%; viability at 0.1 µM (Calu-1 [3]): 0.82%; viability at 0.1 µM (SW837 [4]): 0.84%; viability at 0.1 µM (NCI-H358 [5]): 0.88%
C[C@@H](Oc1cc(-c2cnn(C3CCNCC3)c2)cnc1N)c1c(Cl)ccc(F)c1Cl [CRIZOTINIB] |  |  |  |  |  | viability at 0.2 µM (NCI-H358 [9]): 0.82%; viability at 0.2 µM (MIA PaCa-2 [10]): 0.79%; viability at 0.2 µM (NCI-H23 [11]): 0.81%; viability at 0.2 µM (SW837 [12]): 0.77%; viability at 0.2 µM (Calu-1 [13]): 0.87%
Cn1c(=O)n(-c2ccc(C(C)(C)C#N)cc2)c2c3cc(-c4cnc5ccccc5c4)ccc3ncc21 [DACTOLISIB] |  |  |  |  |  | viability at 0.05 µM (NCI-H23 [14]): 0.79%; viability at 0.05 µM (Calu-1 [15]): 0.88%; viability at 0.05 µM (MIA PaCa-2 [16]): 0.7%; viability at 0.05 µM (SW837 [17]): 0.82%; viability at 0.05 µM (NCI-H358 [18]): 0.77%
CCN1CCN(c2ccc(Nc3cc(N(C)C(=O)Nc4c(Cl)c(OC)cc(OC)c4Cl)ncn3)cc2)CC1 [INFIGRATINIB] |  |  |  |  |  | viability at 0.1 µM (NCI-H23 [1]): 0.89%; viability at 0.1 µM (MIA PaCa-2 [2]): 0.84%; viability at 0.1 µM (Calu-1 [3]): 0.86%; viability at 0.1 µM (SW837 [4]): 0.85%; viability at 0.1 µM (NCI-H358 [5]): 0.88%
C=CC(=O)N1CCN(c2nc(=O)n(-c3c(C)ccnc3C(C)C)c3nc(-c4c(F)cccc4OCCN4CCN(CCC(=O)N[C@H](C(=O)N5C[C@H](O)C[C@H]5C(=O)NCc5ccc(-c6scnc6C)cc5)C(C)(C)C)CC4)c(F)cc23)[C@@H](C)C1 | 172 nM | > 10000 nM | 253 nM | > 10000 nM | > 10000 nM | 

More lines, main results first:

IC50 (MIA PaCa-2 [7]) | IC50 (HepG2) | IC50 (NCI-H358 [8]) | IC50 (ASPC1) | Structure (SMILES) | IC50 at 72 h [6] | further results
200 nM | > 10000 nM | 222 nM | > 10000 nM | C=CC(=O)N1CCN(c2nc(=O)n(-c3c(C)ccnc3C(C)C)c3nc(-c4c(F)cccc4OCc4cn(CCC(=O)N[C@H](C(=O)N5C[C@H](O)C[C@H]5C(=O)NCc5ccc(-c6scnc6C)cc5)C(C)(C)C)nn4)c(F)cc23)[C@@H](C)C1 | > 10000 nM | 
434 nM | > 10000 nM | 631 nM | > 10000 nM | C=CC(=O)N1CCN(c2nc(=O)n(-c3c(C)ccnc3C(C)C)c3nc(-c4c(F)cccc4OCCOCC(=O)Nc4cccc5c4CN(C4CCC(=O)NC4=O)C5=O)c(F)cc23)[C@@H](C)C1 (stereo not given in full) | > 10000 nM | 
491 nM | > 10000 nM | 368 nM | > 10000 nM | C=CC(=O)N1CCN(c2nc(=O)n(-c3c(C)ccnc3C(C)C)c3nc(-c4c(F)cccc4OCc4cn(CCCC(=O)N[C@H](C(=O)N5C[C@H](O)C[C@H]5C(=O)NCc5ccc(-c6scnc6C)cc5)C(C)(C)C)nn4)c(F)cc23)[C@@H](C)C1 | > 10000 nM | 
660 nM | > 10000 nM | 463 nM | > 10000 nM | C=CC(=O)N1CCN(c2nc(=O)n(-c3c(C)ccnc3C(C)C)c3nc(-c4c(F)cccc4OCc4cn(CCCCC(=O)N[C@H](C(=O)N5C[C@H](O)C[C@H]5C(=O)NCc5ccc(-c6scnc6C)cc5)C(C)(C)C)nn4)c(F)cc23)[C@@H](C)C1 | > 10000 nM | 
